According to patent publication US9593305B2, “Differentiation of pluripotent stem cells” (Janssen Biotech, Inc., priority 2008, dated 2017):

Test system: H1 human embryonic stem cells
Test: MTS assay of cell proliferation during definitive endoderm differentiation (Example 23)
Format: cell-based
Details: 100 ng/ml growth factor with 8 ng/ml bFGF, with or without Wnt3a
Procedure: Stock cultures of human embryonic stem cells (H1 human embryonic stem cell line) were maintained in an undifferentiated, pluripotent state on reduced growth factor […]™ (BD Biosciences; Cat #356231)-coated dishes in MEF conditioned medium with passage on average every four days. Passage was performed by exposing cell cultures to a solution of 1 mg/ml dispase (Invitrogen, Cat #: 17105-041) for 5 to 7 minutes at 37° C. followed by rinsing the monolayer with MEF conditioned culture medium and gentle scraping to recover cell clusters. Clusters were centrifuged at low speed to collect a cell pellet and remove residual dispase. Cell clusters were split at a 1:3 or 1:4 ratio for routine maintenance culture or a 1:1 ratio for immediate assay. All human embryonic stem cell lines were maintained at passage numbers less than 50 and routinely evaluated for normal karyotypic phenotype and for absence of mycoplasma contamination. […]
At the conclusion of 24, 48, or 72 hours of culture, one set of assay plates was subjected to a MTS assay (Promega; Cat#G3581), following the manufacturer's instructions. In brief, 20 μl of MTS was added to each well, and assay plates were incubated at 37° C., 5% CO2 for four hours prior to taking OD490 readings. […]

Row | Substance | OD490 (MTS) over the three day assay, control treatments
1 | GDF-8: growth factor GDF-8, also known as myostatin, member of the TGF-β family | decrease in OD490 relative to activin A treatment
2 | Activin A: recombinant human activin A (PeproTech), TGF-beta family member | incremental increases in OD490
